The results in this text go back to patent US11590109B2 (priority 2016, dated 2023).

Data set [1] deals with Dengue Virus 2 (type 2 dengue virus). Nature of the data set: Inhibition of viral replication (CPE) at cellular level, Dengue Virus 2 in Vero. It is filed as cell-based. Particulars: Dengue Virus 2 in host cell Vero; for IC50: CPE. The text has this:
Activity Test for Inhibition of Viral Replication at Cellular Level […]
The present inventors tested inhibitory effects of the compound of the present invention on cytopathic effects (CPE) caused by viral infection on mammalian cells.
Half-inhibitory concentration IC50 and half toxic concentration TC50 of the compound against Dengue Virus 2 (type 2 dengue virus) in host cell Vero (African green monkey kidney cell).

Data set [2] in a line: in vitro. Particulars: African green monkey.
The test system of data set [3] is H3N2 (influenza virus). Nature of the data set: microbe, parasite or virus in culture. The conditions noted are these: Influenza A virus, H3N2, MDCK.
Data set [4] can be described thus: in vitro. Particulars: dog.
A further data set has as its system Zika Virus. Briefly: Inhibition of viral replication (CPE) at cellular level, Zika Virus in Vero. Particulars: for SI (TC50/IC50): Zika Virus in host cell Vero; for IC50: Zika virus, Vero.
Data set [5] has as its system H1N1 (influenza virus). Particulars: H1N1 in host cell MDCK.
In data set [6] the test system is JEV (Japanese encephalitis virus). Briefly: Inhibition of viral replication (CPE) at cellular level, JEV in Vero. Particulars: for SI (TC50/IC50): JEV in host cell Vero; for IC50: Japanese encephalitis virus, Vero.
In data set [7] the test system is RSV (human respiratory syncytial virus). Briefly: Inhibition of viral replication (CPE) at cellular level, RSV in Vero. Particulars: for SI (TC50/IC50): RSV in host cell Vero; for IC50: human respiratory syncytial virus, Vero.
The subject of data set [8] is EV71 (hand-foot-and-mouth virus). Nature of the data set: microbe, parasite or virus in culture. Particulars: Enterovirus A.
The subject of data set [9] is H7N9 (influenza virus). The conditions noted are these: H7N9 in host cell MDCK.
The test system of data set [10] is EV71 (hand-foot-and-mouth virus). Particulars: EV71 in host cell RD.
Data set [11] has as its system H1N1 (influenza virus). Briefly: microbe, parasite or virus in culture. Particulars: Influenza A virus, H1N1, MDCK.
Data set [12] is described as follows: Determination of TC50 (half toxicity concentration) in RD cells. The conditions noted are these: human, host cell RD, EV71 table. It is filed as cell-based.
The subject of data set [13] is H3N2 (influenza virus). Particulars: H3N2 in host cell MDCK.
In data set [14] the test system is H7N9 (influenza virus). Briefly: microbe, parasite or virus in culture. The conditions noted are these: Influenza A virus, H7N9, MDCK.
In data set [15] the test system is H7N9 avian influenza virus. It is filed as in vivo. The conditions noted are these: lethal dose H7N9 (1MLD50) nasal, Compound 16 10 mg/kg, Oseltamivir 20 mg/kg, intraperitoneal, once a day for first 5 days, FIG. 4.
The subject of a further data set is influenza virus. Briefly: microbe, parasite or virus in culture. It is filed as cell-based. The conditions noted are these: unidentified influenza virus, MDCK, read-out: inhibitory effect on influenza virus.
The mark [16] stands for this setting: TC50, host cell Vero, Dengue Virus 2 table.
The mark [17] stands for this setting: TC50, host cell Vero, RSV table.
[18] abbreviates: TC50, host cell Vero, Zika Virus table.

A value given as a limit tells only on which side of the number the result lay.

Turning to `Cc1sc(N(C)/N=C/c2ccccc2C(=O)O)nc1-c1ccccc1` [Compound 12, (E)-5-methyl-4-phenyl-2-[1-methyl-2-(2-carboxybenzylidene)hydrazino]thiazole], the “SI (TC50/IC50)” value is listed as 65 in data set [1]; 56.5 in the data set with Zika Virus; 77 with H1N1 (influenza virus) [5]; 100 in [6]; 11.7 in data set [7]; 54 in the data set with H7N9 (influenza virus) [9]. For the same molecule, the results for the “SI (TC50/IC50)” value (in data set [10]; in the data set on H3N2 (influenza virus) [13]) were 4 and 146, respectively. Further, the IC50 is 260 nM in [1]; 350 nM in the data set on H3N2 (influenza virus) [3]; 230 nM with Zika Virus; 130 nM in data set [6]; 1.79 µM in data set [7]; 250 nM in [8]. Also, the IC50 worked out at 790 nM with H1N1 (influenza virus) [11] and 1090 nM with H7N9 (influenza virus) [14]. Besides, the CC50 came out at 17 µM in the data set “in vitro [2]” (setting [16]); 21 µM in the data set “in vitro [2]” (setting [17]); 13 µM in “in vitro [2]” (setting [18]); 51 µM in the data set “in vitro [4]” (TC50); 1000 nM in [12].
`O=C(O)c1ccccc1/C=N/Nc1nc(-c2ccccc2Cl)cs1` [Compound 16, (E)-4-(2-chlorophenyl)-2-(2-carboxybenzylidenehydrazino)thiazole]: the “SI (TC50/IC50)” value in data set [1] was 167; in the data set on Zika Virus, 133; with H1N1 (influenza virus) [5], >100; in [6], 100; in [7], 4; in the data set on H7N9 (influenza virus) [9], >41.7. The “SI (TC50/IC50)” value is listed as 3.3 in data set [10] and >250 with H3N2 (influenza virus) [13]. In addition, the IC50 in data set [1] was 120 nM; in the data set with H3N2 (influenza virus) [3] it was 200 nM; in the data set with Zika Virus it was 150 nM; in [6] it was 200 nM; in data set [7], 5 µM; in data set [8] it was 300 nM. Further, the results for the IC50 in the data set on influenza virus, in the data set on H1N1 (influenza virus) [11] and in the data set with H7N9 (influenza virus) [14] were ~2000 nM, 500 nM and 1200 nM, respectively. Also, the CC50 in “in vitro [2]” (setting [16]) was 20 µM; in “in vitro [2]” (setting [17]), 20 µM; in “in vitro [2]” (setting [18]), 20 µM; in “in vitro [4]” it was > 50 µM; in [12], 1000 nM. For the same molecule, the “therapeutic effect, recovery in the body weight of infected mice” value in data set [15] is listed as “therapeutic effects similar to the positive drug Oseltamivir”. In addition, the “inhibitory effects on human respiratory syncytial virus RSV” value in data set [7] (FIG. 3) is given as “a certain inhibitory effects”.
Take `O=C(O)c1cc(F)c(F)cc1/C=N/Nc1nc(-c2ccccc2Cl)cs1` [Compound 23-1]: the “SI (TC50/IC50)” value in [1] is listed as 200; with Zika Virus, 262; in the data set on H1N1 (influenza virus) [5] it was 300; in data set [6] it was 124; in [7], 19; in the data set on H7N9 (influenza virus) [9], 152. Moreover, the “SI (TC50/IC50)” value in [10] is on record as 5.4; with H3N2 (influenza virus) [13], 477. For the same molecule, the IC50 in data set [1] amounted to 390 nM; in the data set on H3N2 (influenza virus) [3], 260 nM; with Zika Virus, 290 nM; in [6], 290 nM; in data set [7] it was 5.67 µM; in data set [8], 370 nM. The IC50 in the data set with H1N1 (influenza virus) [11] and in the data set on H7N9 (influenza virus) [14] was 670 nM in each case. The CC50 in the data set “in vitro [2]” came out at 36 µM; in the data set “in vitro [2]” (setting [16]), 78 µM; in the data set “in vitro [2]” (setting [17]), 101 µM; in the data set “in vitro [2]” (setting [18]), 76 µM; in “in vitro [4]” (TC50), 124 µM; in data set [12] it was 2000 nM.
